Here are results for six molecules from paper PMC1198225, “Novel curcumin- and emodin-related compounds identified by in silico 2D/3D conformer screening induce apoptosis in tumor cells” (BMC Cancer, 2005).

For one test, the target named is T1, recombinant PKD (Homo sapiens, UniProt Q15139).
T1 construct: gene PRKD1; commercial recombinant kinase (Upstate)
T1 sequence (Q15139 1-912): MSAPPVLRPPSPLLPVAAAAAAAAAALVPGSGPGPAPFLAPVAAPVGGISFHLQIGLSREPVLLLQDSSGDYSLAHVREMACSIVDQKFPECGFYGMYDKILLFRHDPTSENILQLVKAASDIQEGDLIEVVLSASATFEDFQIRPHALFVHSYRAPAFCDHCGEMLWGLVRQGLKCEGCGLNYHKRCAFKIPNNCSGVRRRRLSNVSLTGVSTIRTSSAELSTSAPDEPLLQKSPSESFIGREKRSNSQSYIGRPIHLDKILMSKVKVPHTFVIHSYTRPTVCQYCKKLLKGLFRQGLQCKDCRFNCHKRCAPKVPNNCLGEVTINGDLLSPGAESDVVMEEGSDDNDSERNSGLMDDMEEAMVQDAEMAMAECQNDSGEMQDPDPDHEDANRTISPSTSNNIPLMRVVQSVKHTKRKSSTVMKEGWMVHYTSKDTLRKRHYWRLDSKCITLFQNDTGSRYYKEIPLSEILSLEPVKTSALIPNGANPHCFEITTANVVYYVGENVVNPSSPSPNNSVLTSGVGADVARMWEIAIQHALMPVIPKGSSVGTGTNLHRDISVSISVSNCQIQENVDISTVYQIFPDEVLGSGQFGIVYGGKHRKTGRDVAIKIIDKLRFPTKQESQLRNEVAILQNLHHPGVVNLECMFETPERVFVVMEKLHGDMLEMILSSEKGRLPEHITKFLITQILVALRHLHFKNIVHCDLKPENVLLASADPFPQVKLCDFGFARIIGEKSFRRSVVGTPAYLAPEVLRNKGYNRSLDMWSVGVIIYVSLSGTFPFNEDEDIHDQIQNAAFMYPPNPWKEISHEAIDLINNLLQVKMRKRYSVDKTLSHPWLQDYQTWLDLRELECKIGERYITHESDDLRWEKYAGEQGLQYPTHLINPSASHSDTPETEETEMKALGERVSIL
The experiment in a line: [γ-32P]ATP phosphorylation of c-Jun, SDS-PAGE autoradiography, densitometry. In kind it is biochemical. From the text:
[γ-32P]ATP phosphorylation of c-Jun, SDS-PAGE autoradiography, densitometry on recombinant PKD

Another test addresses T2, Recombinant CK2 (2α2β) (Homo sapiens, UniProt P68400).
T2 construct: gene CSNK2A1; commercial recombinant holoenzyme (Calbiochem), alpha2beta2 tetramer; with Casein kinase II subunit beta
The description is as above. In kind it is biochemical. From the text: [γ-32P]ATP phosphorylation of c-Jun, SDS-PAGE autoradiography, densitometry on Recombinant CK2 (2α2β)

Read-outs that look alike come from different tables or passages of the source.

T2 sequence (P68400 whole entry): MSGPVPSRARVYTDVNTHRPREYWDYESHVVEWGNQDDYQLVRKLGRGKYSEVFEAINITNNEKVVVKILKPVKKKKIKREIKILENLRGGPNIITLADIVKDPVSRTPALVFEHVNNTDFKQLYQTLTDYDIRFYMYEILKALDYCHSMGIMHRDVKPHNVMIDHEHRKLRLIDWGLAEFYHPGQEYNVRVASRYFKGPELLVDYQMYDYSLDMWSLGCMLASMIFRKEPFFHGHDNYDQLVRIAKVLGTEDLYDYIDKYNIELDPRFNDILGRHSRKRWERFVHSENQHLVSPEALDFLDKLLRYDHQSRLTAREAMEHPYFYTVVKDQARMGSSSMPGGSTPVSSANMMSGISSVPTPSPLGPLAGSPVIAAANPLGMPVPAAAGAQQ
T2 sequence (P67870 2-215 partner): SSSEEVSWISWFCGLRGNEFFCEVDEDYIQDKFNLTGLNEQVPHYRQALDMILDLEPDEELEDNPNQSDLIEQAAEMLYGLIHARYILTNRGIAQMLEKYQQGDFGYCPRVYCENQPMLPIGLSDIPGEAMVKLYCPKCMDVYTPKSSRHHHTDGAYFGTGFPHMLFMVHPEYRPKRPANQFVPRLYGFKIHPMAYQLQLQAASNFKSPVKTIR

In the case of `COc1ccc2c(=O)c3ccccc3n(C)c2c1` [JFD02836, 3-methoxy-10-methyl-9,10-dihydro-9-acridinone], the IC50 (as a rule, the concentration that inhibits the measured activity by half) was 39.7 µM on recombinant PKD and 19.9 µM on Recombinant CK2 (2α2β).
Consider `O=C1C(=CO)c2ccccc2-c2ccccc21` [JFD03665, 10-(hydroxymethylene)phenanthren-9(10H)-one], for which the results for the IC50 on recombinant PKD and on Recombinant CK2 (2α2β) were 155 µM and 5.9 µM, respectively.
`Nc1c2c(nc3cccc(F)c13)OCCC2` [SEW04213, 6-fluoro-3,4-dihydro-2H-pyrano [2,3-b]quinolin-5-amine]: the figures for the IC50 at recombinant PKD and at Recombinant CK2 (2α2β) were 186 µM and 37.9 µM, respectively.
On to `O=C(NN=Cc1cc(Cl)cc(Cl)c1O)c1ccccn1` [BTB00363, 2-Pyridinecarboxylic acid, [(3,5-dichloro-2-hydroxyphenyl)methylene]hydrazide], for which the half-inhibitory concentration (IC50) on recombinant PKD (read-out: IC50 PKD) turned out to be 118 µM; at Recombinant CK2 (2α2β) (read-out: IC50 CK2), 333 µM.
On to `O=C1C=CC(=O)c2c1c(O)c1ccccc1c2O` [BTB14431, 9,10-dihydroxy-1,4-dihydroanthracene-1,4-dione], for which the IC50 was 68.9 µM at recombinant PKD and 6.4 µM on Recombinant CK2 (2α2β).
As for `Oc1cc(O)cc(/C=C/c2ccc(O)c(O)c2)c1` [Piceatannol], the IC50 at recombinant PKD (read-out: IC50 PKD) is 0.5 µM; at Recombinant CK2 (2α2β) (read-out: IC50 CK2), 2.5 µM.
